According to patent US4668682A, “2-Phenylalkyl-3-aminoalkyl-4(3H)-quinazolinone compound” (Mitsubishi Chemical Industries Limited, priority 1984, dated 1987):
Structures can show the parent of a compound that is named as a salt.

Assays:
acetylcolinesterase = conditions: Indian J. Pharm., 33, 80 (1971); cited from earlier work
[1] = tested on: calcium induced contraction of the isolated thoracic aorta in rats; test: Calcium antagonistic activity: relaxation of calcium induced contraction of isolated thoracic aorta; format: cell-based, rat (male Wistar strain); conditions: spiral specimen of rat thoracic aorta, 80 mM potassium, 10 mM Ca++; relaxing activity; read-out: Minimum effective concentration
Experimental: Calcium antagonistic activity
Calcium antagonistic activity of the present compound was investigated by observing the effects on the calcium induced contraction of the isolated thoracic aorta in rats.
A piece of thoracic aorta was isolated from male Wistar strain rats weighing 350-450 g in order to prepare a spiral specimen. This specimen was suspended in a Krebs-Henseleit solution free from calcium. The contraction was evoked by an application of CaCl2 in the presence of 80 mM potassium so as to adjust the solution at a concentration of 10 mM Ca^++. The present compound to be tested was applied to the specimen which had been maximally contracted and was evaluated for its relaxing activity.

[2] = tested on: blood flow of the circumflex branch of left coronary artery (dog); test: Increasing activity of coronary blood flow in anesthetized dogs; format: in vivo, dog (mongrel); conditions: Canis lupus familiaris, 0.1 mg/kg iv, read-out: Increase rate of coronary blood flow
Experimental: Increasing activity of coronary blood flow
Male and female mongrel dogs weighing 8 to 17.5 kg were anesthetized with intravenous administration of sodium pentobarbital at a dosage of 30 mg/kg. Under artificial respiration the chest was opened on the left side at the level of the fourth intercostal space and the heart was exposed. The circumflex branch of left coronary artery just below the junction of the anterior descending branch of left coronary artery was isolated in a width of approximately 1 cm, and a flow probe was placed around this artery in order to measure the blood flow of the circumflex branch of left coronary artery by means of an electromagnetic flow meter. During the tests, systemic blood pressure was monitored, and data obtained from tests where the mean blood presure was less than 65 mmHg were excluded from the final data. The pharmaceutical compound to be tested was dissolved in physiological saline or 50% ethanol/50% physiological saline and the thus obtained solution was intravenously administered at a dosage of 1 ml/10 kg through a polyethylene catheter which had been provided within the left femoral vein. The increasing activity of the blood flow of the circumflex branch of left coronary artery was evaluated and expressed in terms of increase rate of the blood flow after the administration of the compound to that of before the administration of the compound.

[3] = Acute toxicity test (mouse, oral administration); conditions: in vivo, male ICR mice, fasted 18 hours
Experimental: Tests were made using groups each comprising five male ICR strain mice weighing 30 to 35 g and being kept under a fast for 18 hours. The compound to be tested was suspended in a 1% tragacanth solution. After the concentration of the suspensions was adjusted in a volume of 40 ml/kg, the compound was administered orally to the mouse.

[4] = tested on: spontaneously hypertensive rats (SHR), average blood pressure; test: Antihypertensive activity in spontaneously hypertensive rats; format: in vivo, rat (SHR); conditions: oral
Experimental: Antihypertensive activity
The compounds to be tested were administered orally to evaluate antihypertensive activity in spontaneously hypertensive rats (hereinafter SHR).
The average blood pressure of male SHR, 20 to 30 weeks old, was measured in a non-anestetised and non restraint state, through a catheter which had been chronically implanted into the abdominal aorta through the right fermoral artery, using an electromanometer. At the same time, the heart rate was measured by a tachometer triggered by the pulse pressure. The compound to be tested was suspended in a 1% tragacanth solution. After the concentration of the suspensions was adjusted in a volume of 5 ml/kg, the compound was administered orally to the SHR. The blood pressure and heart rate were measured 0.5, 1, 3, 6 and 24 hours after the administration.

| SMILES | minimal effective concentration [1] [µM] | change in vivo at 0.1 mg/kg [2] [%] | LD50 [3] [mg/kg] | other results |
| --- | --- | --- | --- | --- |
| CCCCN(CCCC)CCCn1c(C)nc2ccc(Cl)cc2c1=O [2-methyl-3-(3-dibutylaminopropyl)-6-chloro-4(3H)-quinazolinone] | – | – | – | inhibitive activity of acetylcolinesterase (acetylcolinesterase): inhibitive activity of acetylcolinesterase |
| CCN(CC)CCn1c(Cc2cc(OC)ccc2OC)nc2ccccc2c1=O [Compound 13] | 3 | 32.7 | 700 | – |
| CCN(CC)CCCn1c(Cc2cc(OC)ccc2OC)nc2ccccc2c1=O [Compound 14] | 1 | 42.7 | – | – |
| COc1ccc(OC)c(Cc2nc3ccccc3c(=O)n2CCN2CCCC2)c1 [Compound 15] | 0.3 | 45.3 | – | – |
| CCN(CC)CCn1c(Cc2ccccc2OCc2ccccc2)nc2ccccc2c1=O [Compound 19] | 0.3 | – | – | – |
| CCN(CC)CCn1c(Cc2ccc(OCc3ccccc3)cc2)nc2ccccc2c1=O [Compound 20] | 0.3 | – | – | – |
| CCN(CC)CCn1c(Cc2cc(OC)ccc2OC)nc2ccc(I)cc2c1=O [Compound 26] | 1 | – | – | – |
| COc1ccc(OC)c(Cc2nc3ccc(OC(C)C)cc3c(=O)n2CCCN(C)C)c1 [Compound 30, 2-(2,5-Dimethoxyphenylmethyl)-3-(3-dimetylaminopropyl)-6-isopropoxy-4(3H)-quinazolinone maleate] | 0.3 | – | – | – |
| COc1ccc(OC)c(Cc2nc3ccc(C)cc3c(=O)n2CCN2CCCC2)c1 [Compound 31] | 1 | 42.5 | 1000 | – |
| COc1ccc(OC)c(Cc2nc3ccc(OC(C)C)cc3c(=O)n2CCN(C)C)c1 [Compound 47] | 0.1 | 95.4 | 750 | Increase rate of average blood pressure after administration, after 1 hour ([4]; 10 mg/kg): -12%; Increase rate of average blood pressure after administration, after 3 hours ([4]; 10 mg/kg): -3% |
| COc1ccc(Cc2nc3ccc(OC(C)C)cc3c(=O)n2CCN(C)C)cc1 [Compound 50] | 0.3 | – | 700 | Increase rate of average blood pressure after administration, after 1 hour ([4]; 10 mg/kg): -17%; Increase rate of average blood pressure after administration, after 3 hours ([4]; 10 mg/kg): -7% |
| CCC(C)Oc1ccc2nc(Cc3cc(OC)ccc3OC)n(CCN(C)C)c(=O)c2c1 (stereo not shown) [Compound 63] | 0.3 | 77.3 | 1200 | – |
| CCC(C)Oc1ccc2nc(Cc3cc(OC)ccc3OC)n(CCCN(C)C)c(=O)c2c1 (stereo not shown) [Compound 64] | 0.3 | 47.6 | – | – |
| COc1ccc(Cc2nc3cc(OC)c(OC(C)C)cc3c(=O)n2CCN(C)C)cc1 [Compound 82] | – | – | 750 | Increase rate of average blood pressure after administration, after 1 hour ([4]; 10 mg/kg): -24%; Increase rate of average blood pressure after administration, after 3 hours ([4]; 10 mg/kg): -15% |
| COc1ccc(OC)c(Cc2nc3ccccc3c(=O)n2CCN(C)CCc2ccc(OC)c(OC)c2)c1 [Compound 93] | 0.03 | – | – | – |
| COc1ccc(OC)c(Cc2nc3ccc(OC(C)C)cc3c(=O)n2CCN(C)CCc2ccc(OC)c(OC)c2)c1 [Compound 102] | 0.03 | 53.6 | 1000 | Increase rate of average blood pressure after administration, after 1 hour ([4]; 10 mg/kg): -11%; Increase rate of average blood pressure after administration, after 3 hours ([4]; 10 mg/kg): -2% |
| COc1ccc(OC)c(Cc2nc3ccc(OC(C)C)cc3c(=O)n2CCCN(C)CCc2ccc(OC)c(OC)c2)c1 [Compound 103] | 0.1 | – | – | – |
| COc1ccc(OC)c(Cc2nc3ccc(C)cc3c(=O)n2CCN(C)CCc2ccc(OC)c(OC)c2)c1 [Compound 114] | 0.1 | – | – | – |
| COc1ccc(OC)c(Cc2nc3ccc(I)cc3c(=O)n2CCN(C)CCc2ccc(OC)c(OC)c2)c1 [Compound 116] | 0.03 | – | – | – |
| CCOc1ccc2nc(Cc3cc(OC)ccc3OC)n(CCN(C)CCc3ccc(OC)c(OC)c3)c(=O)c2c1 [Compound 121] | 0.03 | – | – | – |
| COc1ccc([C@@H]2Sc3ccccc3N(CCN(C)C)C(=O)[C@@H]2OC(C)=O)cc1 [diltiazem, reference compound] | 0.3 | 91.2 | 650 | Increase rate of average blood pressure after administration, after 1 hour ([4]; 30 mg/kg): -8%; Increase rate of average blood pressure after administration, after 3 hours ([4]; 30 mg/kg): 0%; Increase rate of average blood pressure after administration, after 1 hour ([4]; 100 mg/kg): -28%; Increase rate of average blood pressure after administration, after 3 hours ([4]; 100 mg/kg): -14% |
